From ChEMBL document CHEMBL5058564, “EUbOPEN Chemogenomics Library 2 (Incucyte)” (2022)

Assays:
Type in all cases: toxicity, cell-based
[1] = test system: HEK-293T; assay: Incucyte cell viability with HEK293T; conditions: human, 10 µM, compound concentration 10 uM
[2] = test system: Fibroblast; assay: Incucyte cell viability with human fibroblast; conditions: 10 µM, compound concentration 10 uM
[3] = test system: U2OS; assay: Incucyte cell viability with U2OS; conditions: human, 10 µM, compound concentration 10 uM
[4] = 0 h, replicate number 2, timepoint 0 hours
[5] = 6 h, replicate number 1, timepoint 6 hours
[6] = 6 h, replicate number 2, timepoint 6 hours
[7] = 12 h, replicate number 1, timepoint 12 hours
[8] = 12 h, replicate number 2, timepoint 12 hours
[9] = 18 h, replicate number 1, timepoint 18 hours
[10] = 18 h, replicate number 2, timepoint 18 hours
[11] = 24 h, replicate number 1, timepoint 24 hours
[12] = 24 h, replicate number 2, timepoint 24 hours
[13] = 0 h, replicate number 1, timepoint 0 hours
Note: unitless GR value; below 1 slowed growth and below 0 cell loss.

Compound	Growth Rate [1, 4]	Growth Rate [1, 5]	Growth Rate [1, 6]	Growth Rate [1, 7]	Growth Rate [1, 8]	Growth Rate [1, 9]	Growth Rate [1, 10]	Growth Rate [1, 11]	Growth Rate [2, 13]	Growth Rate [2, 4]	Growth Rate [2, 7]	Growth Rate [2, 8]	Growth Rate [2, 9]	Growth Rate [2, 10]	Growth Rate [2, 11]	Growth Rate [2, 12]	Growth Rate [3, 13]	Growth Rate [3, 10]	Growth Rate [2, 5]	Growth Rate [3, 4]	further results
O=C(Nc1cc(-c2cn[nH]c2)ccc1N1CCOCC1)c1ccc(-c2ccc3ncccc3c2)o1	0.28	-0.01	0.26	-0.14	0.02	0	0.07	0.15	0.62	-0.67	0.82	0.89	0.43	0.89	0.3	0.83	0.53	0.39	–	–	Growth Rate [1, 12]: 0.04; Growth Rate [3, 5]: 0.9; Growth Rate [3, 7]: 0.6; Growth Rate [3, 9]: 0.57; Growth Rate [3, 11]: 0.7; Growth Rate [3, 12]: 0.26
C[C@@H](O[C@H]1OCCN(Cc2n[nH]c(=O)[nH]2)[C@H]1c1ccc(F)cc1)c1cc(C(F)(F)F)cc(C(F)(F)F)c1 [APREPITANT]	–	0.91	0.66	0.57	0.97	0.77	0.84	0.74	–	–	0.39	-0.12	0.18	0.17	0.28	0.5	-0.52	0.69	0.71	-1	Growth Rate [2, 6]: -0.37; Growth Rate [3, 5]: 0.29; Growth Rate [3, 6]: 0.58; Growth Rate [3, 8]: 0.65; Growth Rate [3, 9]: 0.9; Growth Rate [3, 12]: 0.79
CC(C)C[C@H](CO)Nc1nc(S[C@@H](C)c2ccccc2)nc2nc(N)sc12 [AZD-8797]	–	–	–	0.77	0.99	0.82	–	0.93	0.26	–	0.47	–	0.83	–	0.54	–	–	0.7	0.37	-1	Growth Rate [3, 7]: 0.93; Growth Rate [3, 8]: 0.82; Growth Rate [3, 12]: 0.79
CCC(=O)NCC[C@@H]1CCc2ccc3c(c21)CCO3 [RAMELTEON]	-0.36	0.99	–	–	–	–	–	0.86	0.51	0.17	0.96	0.73	0.96	0.83	0.77	0.89	-0.01	–	0.76	–	Growth Rate [1, 13]: 0.12; Growth Rate [2, 6]: 0.51; Growth Rate [3, 5]: 0.45; Growth Rate [3, 7]: 0.54; Growth Rate [3, 9]: 0.88; Growth Rate [3, 11]: 0.82
CSCC[C@H](NC(=O)[C@@H]1CCCN1C(=O)CNC(=O)[C@H](CCCCN)NC(=O)[C@H](Cc1cnc[nH]1)NC(=O)[C@H](CO)NC(=O)[C@H](CC(C)C)NC(=O)[C@H](CCCNC(=N)N)NC(=O)[C@@H]1CCCN1C(=O)[C@H](CCCNC(=N)N)NC(=O)[C@@H](N)CCC(N)=O)C(=O)N1CCC[C@H]1C(=O)N[C@@H](Cc1ccccc1)C(=O)O	0.65	–	–	–	–	0.97	–	0.74	0.13	0.64	–	0.8	–	–	0.88	–	–	0.91	–	-0.88	Growth Rate [1, 13]: 0.46; Growth Rate [3, 6]: 0.73; Growth Rate [3, 12]: 0.94
CN(C)C(=O)N1CC[C@H](NC2=Nc3cc(F)ccc3N(CC(F)F)c3ccc(Cl)cc32)C1	0.7	0.94	0.35	0.82	0.77	0.89	0.79	0.83	–	-0.03	0.6	–	0.62	0.82	0.32	0.81	–	0.92	-0.43	–	Growth Rate [1, 12]: 0.88; Growth Rate [3, 8]: 0.92
Cc1cc(C)cc([C@@H]2c3cc(C)ccc3NC(=O)CN2C(=O)c2ccc(Br)s2)c1	0.57	0.88	–	0.65	0.79	0.61	0.69	0.46	0.17	0.74	–	–	–	–	1	–	–	0.81	–	–	Growth Rate [1, 13]: 0.35; Growth Rate [1, 12]: 0.7; Growth Rate [3, 9]: 0.98; Growth Rate [3, 12]: 0.89
Nc1nc(Nc2ccccc2)nc2c1ncn2[C@@H]1O[C@H](CO)[C@@H](O)[C@H]1O	-0.14	0.52	0.76	0.7	0.63	0.76	0.95	0.85	0.77	0.2	0.83	0.96	–	–	0.93	–	0.4	0.91	–	–	Growth Rate [1, 13]: 0.49; Growth Rate [1, 12]: 0.9; Growth Rate [3, 5]: 0.95; Growth Rate [3, 7]: 0.84; Growth Rate [3, 11]: 0.93
O=C(O)Cc1ccccc1Nc1c(Cl)cccc1Cl [DICLOFENAC]	0.45	0.97	–	–	–	–	–	–	0.78	0.28	–	–	–	–	–	–	–	–	0.86	-1	Growth Rate [3, 6]: 0.98
Cn1cc(-c2ccc3occ(-c4cccc(-c5ccncc5)c4)c3n2)cn1	–	-0.87	-0.61	-0.67	-0.44	-0.56	-0.33	-0.43	–	–	-0.95	-0.62	-0.87	-0.23	-0.84	0.02	-0.88	0.09	-0.96	–	Growth Rate [1, 12]: -0.32; Growth Rate [3, 5]: -0.02; Growth Rate [3, 6]: -0.14; Growth Rate [3, 7]: -0.03; Growth Rate [3, 8]: -0.05; Growth Rate [3, 9]: -0.03; Growth Rate [3, 11]: -0.02; Growth Rate [3, 12]: 0.09
Cc1c(C(=O)NN2CCCCC2)nn(-c2ccc(Cl)cc2Cl)c1-c1ccc(Cl)cc1 [RIMONABANT]	-0.01	–	–	–	–	–	–	–	–	0.97	0.04	0	-0.03	0.53	0.03	0.42	0.12	0.98	-0.42	-1	Growth Rate [1, 13]: 0.19; Growth Rate [2, 6]: -0.46; Growth Rate [3, 11]: 0.8
O=C(NCCN1CCC(n2c(=O)[nH]c3cc(Cl)ccc32)CC1)c1ccc(F)cc1 [HALOPEMIDE]	–	-0.01	0.96	0.56	0.68	0.67	–	0.5	–	–	-0.23	0.66	-0.17	–	-0.39	–	0.7	1	-0.01	0.14	Growth Rate [2, 6]: 0.12
Cl.Clc1ccc2nsnc2c1NC1=NCCN1 [TIZANIDINE HYDROCHLORIDE]	–	–	0.88	1	0.61	–	–	–	–	0.25	0.72	–	0.25	–	0.25	–	0.36	–	-0.29	-1	Growth Rate [3, 5]: 0.31
CC(C)n1cc(-c2ccc(N3CCN(C)CC3)c(NC(=O)c3ccc(-c4ccncc4)o3)c2)cn1	–	-0.29	-0.21	-0.21	-0.04	-0.16	0.34	0.11	–	0.57	0.05	0.57	-0.06	0.81	0.03	0.94	0.32	–	-0.14	-1	Growth Rate [1, 12]: 0.64; Growth Rate [2, 6]: 0.39; Growth Rate [3, 5]: -0.04; Growth Rate [3, 7]: 0.36; Growth Rate [3, 9]: 0.95
